# Measured values taken from US20120316203A1, “Compositions and Methods for Inhibition of Cancers” (THE OHIO STATE UNIVERSITY RESEARCH FOUNDATION, priority 2009, published 2012).
# What was measured:
# [1] = system: p53, p21, p27, cdk2, and cyclin A in A2780 cells; test: Immunoblot of cell cycle regulatory proteins; type: cell-based, human; details: Western blot
# Protocol: Cells in RPMI 1640 were treated with DMSO (control) or HO-3867 (10 μmol/L) for 24 hours. Equal volumes of DMSO (0.1% v/v) were present in each treatment. Following treatment, the cell lysates were prepared in non-denaturing lysis buffer containing 10 mmol/L Tris-HCl (pH 7.4), 150 mmol/L NaCl, 1% Triton X-100, 1 mmol/L EDTA, 1 mmol/L EGTA, 0.3 mmol/L phenylmethyl-sulfonyl fluoride, 0.2 mmol/L sodium orthovanadate, 0.5% NP40, 1 μg/mL aprotinin, and 1 μg/mL leupetin. The lysates were centrifuged at 10,000×g for 20 minutes at 4° C. and the supernatant was separated. The protein concentration in the lysates was determined using a Pierce detergent-compatible protein assay kit. For Western blotting, 25 to 50 μg of protein lysate per sample were denatured in 2×SDS-PAGE sample buffer and subjected to SDS-PAGE on a 10% tris-glycine gel. The separated proteins were transferred to a polyvinylidene fluoride membrane and were blocked with 5% nonfat milk powder (w/v) in TBST (10 mmol/L Tris, 10 mmol/L NaCl, 0.1% Tween 20) for 1 hour at room temperature or overnight at 4° C. […] The bound antibodies were detected with horseradish peroxidase-labeled sheep anti-mouse IgG or horseradish peroxidase-labeled donkey anti-rabbit IgG using an enhanced chemiluminescence detection system (ECL Advanced kit). Protein expressions were determined using the Image Gauge v. […]
# [2] = system: caspase-8, caspase-7, cleaved caspase-3, PARP, Fas/CD95, Fas-L, TNF-R1 in A2780 cells; test: Immunoblot of apoptotic marker proteins and death receptors; type: cell-based, human
# Protocol: Cells in RPMI 1640 were treated with DMSO (control) or HO-3867 (10 μmol/L) for 24 hours. Equal volumes of DMSO (0.1% v/v) were present in each treatment. Following treatment, the cell lysates were prepared in non-denaturing lysis buffer containing 10 mmol/L Tris-HCl (pH 7.4), 150 mmol/L NaCl, 1% Triton X-100, 1 mmol/L EDTA, 1 mmol/L EGTA, 0.3 mmol/L phenylmethyl-sulfonyl fluoride, 0.2 mmol/L sodium orthovanadate, 0.5% NP40, 1 μg/mL aprotinin, and 1 μg/mL leupetin. The lysates were centrifuged at 10,000×g for 20 minutes at 4° C. and the supernatant was separated. The protein concentration in the lysates was determined using a Pierce detergent-compatible protein assay kit. For Western blotting, 25 to 50 μg of protein lysate per sample were denatured in 2×SDS-PAGE sample buffer and subjected to SDS-PAGE on a 10% tris-glycine gel. The separated proteins were transferred to a polyvinylidene fluoride membrane and were blocked with 5% nonfat milk powder (w/v) in TBST (10 mmol/L Tris, 10 mmol/L NaCl, 0.1% Tween 20) for 1 hour at room temperature or overnight at 4° C. The membranes were then incubated with the primary antibodies. The bound antibodies were detected with horseradish peroxidase-labeled sheep anti-mouse IgG or horseradish peroxidase-labeled donkey anti-rabbit IgG using an enhanced chemiluminescence detection system (ECL Advanced kit). Protein expressions were determined using the Image Gauge v. 3.45 software.
# [3] = system: A2780 and other cancer cells; test: Metabolic conversion to nitroxide in cancer cells (EPR); type: in vitro ADME, human
# Text: The N-hydroxypyrroline (—NOH) moiety is capable of undergoing a reversible one-electron oxidation to its nitroxide form (—NO; FIG. 9A), which is paramagnetic and detectable by EPR spectroscopy.
# A2780 and SKOV3 cells = test: Cell-invasion (Boyden chamber) assay; type: cell-based, human; details: 10 μM
# Protocol: Cell-migration assay was performed by wound-healing method. Cells were plated at equal density and grown to 90% confluence. Wounds were created using a sterile pipette tip. Cells were then rinsed with medium and replaced with the fresh medium and incubated with HO-3867 (10 μM). Areas of wound were marked and photographed at various time-points with a phase-contrast microscope. Cell-invasive assay was measured by an in vitro Boyden chamber assay. Briefly, 1×10^5 cells in 0.5 ml of serum-free RPMI 1640 medium were added to the wells of 8-μm-diameter pore membrane Boyden chambers, either coated with (BD Biosciences, Franklin Lake, N.J.) or without (Corning, Corning, N.Y.) Matrigel. Cells were allowed to invade for 24 hours. Cells that had not penetrated the filters were removed by scrubbing with cotton swabs. Chambers were fixed in 100% methanol for 2 min, stained in 0.5% crystal violet for 2 min, rinsed in PBS and examined using a bright-field microscope. Values for invasion were obtained by counting five fields per membrane and represented as the average of three independent experiments performed over multiple days.
# [4] = system: FAS and FAK in A2780 and SKOV3 cells; test: FAS and FAK protein and mRNA expression in ovarian cancer cells; type: cell-based, human; details: 10 μM
# Protocol: Cells in RPMI 1640 medium were treated with DMSO (control) or HO-3867 (10 μM) for 24 h. Equal volumes of DMSO (0.1% v/v) were present in each treatment. Following treatment, the cell lysates were prepared in nondenaturing lysis buffer containing 10-mM Tris-HCl (pH 7.4), 150-mM NaCl, 1% Triton X-100, 1-mM EDTA, 1-mM EGTA, 0.3-mM phenylmethylsulfonyl fluoride, 0.2-mM sodium orthovanadate, 0.5% NP40, 1-μg/ml aprotinin, and 1-μg/ml leupetin. The lysates were centrifuged at 10,000×g for 20 min at 4° C., and the supernatant was separated. The protein concentration in the lysates was determined using a Pierce detergent-compatible protein assay kit. For Western blotting, 25 to 50 μg of protein lysate per sample was denatured in 2×SDS-PAGE sample buffer and subjected to SDS-PAGE on a 10% tris-glycine gel. […] The bound antibodies were detected with horseradish peroxidase (HRP)-labeled sheep anti-mouse IgG or HRP-labeled donkey anti-rabbit IgG using an enhanced chemiluminescence detection system (ECL Advanced kit). Protein expressions were determined using Image Gauge version 3.45.
# Total RNA isolated from ovarian tumor tissue was prepared with TRIzol (Life Technologies, Grand Island, N.Y.) according to the manufacturer's instructions. RNA quantification was done using spectrophotometry. […]
# [5] = system: USP2a, ubiquitinated FAS and FAK in A2780 and SKOV3 cells; test: Ubiquitination of FAS/FAK and USP2a level; type: cell-based, human
# Protocol: FIG. 15: HO-3867 downregulates FAS and FAK levels via proteasome pathways. To catch any ubiquitinated proteins in the cell lysates, agarose beads coated with domains having affinity to ubiquitin were incubated in the lysates at 4° C. for 2 hours. After washing the beads, the ubiquitinated proteins were subjected to immunoblot for FAS and FAK and blotted by the ubiquitin antibody. A predominant ubiquitination of FAS and FAK is seen in the HO-3867-treated A2780 and SKOV3 cells under proteasomal inhibition using MG 132 (50 μM).
# The intracellular amount of rapid-turnover proteins, such as FAS and FAK, is tightly regulated by the ubiquitin-dependent proteolytic pathway. The fast and significant decrease in the FAS and FAK expressions observed in the HO-3867-treated cells prompted us to check any involvement of ubiquitin-dependent degradation mechanism.
structure (smiles),measurement,setting,value
"CC1(C)C=C(CN2C/C(=C\c3ccc(F)cc3)C(=O)/C(=C/c3ccc(F)cc3)C2)C(C)(C)N1O [HO-3867, 1-[(1-oxyl-2,2,5,5-tetramethyl-2,5-dihydro-1H-pyrrol-3-yl)methyl]-(3E,5E)-3,5-bis(4-fluorobenzylidene)piperidin-4-one]",cdk2 and cyclin-A levels,[1],significantly decreased
same,levels of p53 and p21,[1],significantly upregulated
same,"level of activated caspases (caspase-8, caspase-7, cleaved caspase-3) and PARP","[2]; 24 hours, versus nontreated cells",significant increase
same,Fas-L level,[2]; data not shown,no significant change
same,expression level of TNF-R1,[2]; data not shown,unchanged
same,Fas/CD95 expression,[2]; versus nontreated group,clear increase
same,EPR signal intensity of the nitroxide metabolite in A2780 cells compared to PBS,[3],fivefold increase
same,EPR spectrum (nitroxide signal) after incubation with A2780 cells,"[3]; 37° C., EPR",characteristic triplet feature
same,cell invasion,"A2780 and SKOV3 cells; 24 hours, versus untreated cells",significant inhibition
same,VEGF-induced invasion,"A2780 and SKOV3 cells; 24-h incubation, versus VEGF group",significantly inhibited
same,"FAS and FAK, protein and expression levels",[4],incubation-time-dependent inhibition
same,USP2a level,[5],clearly downregulated
same,polyubiquitination on FAS and FAK,[5]; co-incubation with MG-132,enhanced polyubiquitination
